Results published in PubChem BioAssay AID1919017 (Molecular Pharmacology Branch, DTP, NCI, 2023).

System: SW1271 complex spheroids with HUVEC/MSC, growth, % test/control
Experiment: Anticancer human tumor SW1271 cell line growth inhibition [AhR];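 note: spheroids exposed to agents for 7 days before readout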
Conditions: for IC50: curve of first compound; for viability, T/C: stronger effect = lower value
Outline: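 Spheroids combined tumor cells with HUVEC endothelial cells and human MSCs as stroma. AhR antagonists were paired with standard or investigational drugs, each dosed in half-log steps down from near clinical Cmax, or from 10 microM where Cmax was unknown.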

[1] = second compound 0.1 µM, first compound 0.0316 µM
[2] = second compound 0.1 µM, first compound 0.1 µM
[3] = second compound 0.1 µM, first compound 0.316 µM
[4] = second compound 0.1 µM, first compound 1 µM
[5] = second compound 0.316 µM, first compound 0.0316 µM
[6] = second compound 0.316 µM, first compound 0.1 µM
[7] = second compound 0.316 µM, first compound 0.316 µM
[8] = second compound 0.316 µM, first compound 1 µM
[9] = second compound 1 µM, first compound 0.0316 µM
[10] = second compound 1 µM, first compound 0.1 µM
[11] = second compound 1 µM, first compound 0.316 µM
[12] = second compound 1 µM, first compound 1 µM
[13] = second compound 3.16 µM, first compound 0.0316 µM
[14] = second compound 3.16 µM, first compound 0.1 µM
[15] = second compound 3.16 µM, first compound 0.316 µM
[16] = second compound 3.16 µM, first compound 1 µM
[17] = second compound 10 µM, first compound 0.0316 µM
[18] = second compound 10 µM, first compound 0.1 µM
[19] = second compound 10 µM, first compound 0.316 µM
[20] = second compound 10 µM, first compound 1 µM

Structure (SMILES) | IC50 (second compound 0.1 µM) | IC50 (second compound 0.316 µM) | IC50 (second compound 1 µM) | IC50 (second compound 3.16 µM) | IC50 (second compound 10 µM) | viability, T/C [1] | viability, T/C [2] | viability, T/C [3] | viability, T/C [4] | viability, T/C [5] | viability, T/C [6] | viability, T/C [7] | viability, T/C [8] | viability, T/C [9] | viability, T/C [10] | viability, T/C [11] | viability, T/C [12] | viability, T/C [13] | viability, T/C [14] | viability, T/C [15] | further results
CC1COCCN1c1cc(-c2ccnn2C)c2ccnc(-c3ccn[nH]3)c2n1 (stereo not given) + CC(CO)NC(=O)c1cc(-c2ccc(Cl)cc2)nn(-c2cnn(C)c2)c1=O | 916 nM | 867 nM | > 1000 nM | 694 nM | 543 nM | 94.4% | 82.1% | 67.8% | 48.5% | 81.7% | 84.3% | 70% | 46.8% | 86.7% | 80.7% | 65.7% | 49.1% | 75.5% | 75.9% | 57.2% | viability, T/C (second compound 0.1 µM, first compound 0.00316 µM): 102%; viability, T/C (second compound 0.1 µM, first compound 0.01 µM): 97.5%; viability, T/C (second compound 0.316 µM, first compound 0.00316 µM): 92.5%; viability, T/C (second compound 0.316 µM, first compound 0.01 µM): 96.1%; viability, T/C (second compound 1 µM, first compound 0.00316 µM): 110%; viability, T/C (second compound 1 µM, first compound 0.01 µM): 98.2%; viability, T/C (second compound 3.16 µM, first compound 0.00316 µM): 84.5%; viability, T/C (second compound 3.16 µM, first compound 0.01 µM): 79.2%; viability, T/C [16]: 45.6%; viability, T/C (second compound 10 µM, first compound 0.00316 µM): 88.9%; viability, T/C (second compound 10 µM, first compound 0.01 µM): 75%; viability, T/C [17]: 68.5%; viability, T/C [18]: 66.6%; viability, T/C [19]: 47.9%; viability, T/C [20]: 47.6%
CC1COCCN1c1cc(C2(S(C)(=N)=O)CC2)nc(-c2ccnc3[nH]ccc23)n1 (stereo not given) + CC(CO)NC(=O)c1cc(-c2ccc(Cl)cc2)nn(-c2cnn(C)c2)c1=O | > 10000 nM | > 10000 nM | > 10000 nM | 8830 nM | > 10000 nM | 114% | 92.9% | 77.6% | 88.9% | 91.3% | 96.7% | 90.3% | 73.2% | 80.7% | 100% | 98.5% | 77% | 98.3% | 83.4% | 86.4% | viability, T/C (second compound 0.1 µM, first compound 3.16 µM): 72.7%; viability, T/C (second compound 0.1 µM, first compound 10 µM): 59.9%; viability, T/C (second compound 0.316 µM, first compound 3.16 µM): 56.1%; viability, T/C (second compound 0.316 µM, first compound 10 µM): 50.9%; viability, T/C (second compound 1 µM, first compound 3.16 µM): 68.3%; viability, T/C (second compound 1 µM, first compound 10 µM): 57.1%; viability, T/C [16]: 73.3%; viability, T/C (second compound 3.16 µM, first compound 3.16 µM): 61.1%; viability, T/C (second compound 3.16 µM, first compound 10 µM): 48.5%; viability, T/C [17]: 80%; viability, T/C [18]: 67.6%; viability, T/C [19]: 72%; viability, T/C [20]: 70.6%; viability, T/C (second compound 10 µM, first compound 3.16 µM): 69.2%; viability, T/C (second compound 10 µM, first compound 10 µM): 62.9%
